Target: Phosphatidylinositol 3-kinase catalytic subunit type 3 (Homo sapiens, UniProt Q8NEB9)
Experiment: VPS34 Enzyme Assays: 100 nL compounds in DMSO are added to wells of a 384 well microtitre plate (Greiner 780076). At room temperature: 5 ul VPS34 reaction buffer (Invitrogen Assay Buffer Q (diluted 1 in 5 with nanopure water) plus 2 mM DTT and 2 mM MnCl2) containing ATP (20 uM, Promega) and 200 uM PI-PS substrate (Invitrogen PV5122) is added followed immediately by 5 ul VPS34 reaction buffer (as above) containing VPS34 (5 nM, Millennium Protein Sciences Group) and the mixture is incubated with shaking at room temperature for 1 hour. Then 5 ul VPS34 stop-detect mix (as per Invitrogen Adapta Assay kit (PV5009) instructions (contains kinase quench buffer, TR-FRET buffer, Adapta Eu anti-ADP antibody and Alexa Fluor 647 ADP tracer)) is added to quench the reaction. The plates are then incubated for 30 minutes at room temperature with shaking and then read on a BMG PheraStar Plus reader.

Sequence of Phosphatidylinositol 3-kinase catalytic subunit type 3 (Q8NEB9 whole entry): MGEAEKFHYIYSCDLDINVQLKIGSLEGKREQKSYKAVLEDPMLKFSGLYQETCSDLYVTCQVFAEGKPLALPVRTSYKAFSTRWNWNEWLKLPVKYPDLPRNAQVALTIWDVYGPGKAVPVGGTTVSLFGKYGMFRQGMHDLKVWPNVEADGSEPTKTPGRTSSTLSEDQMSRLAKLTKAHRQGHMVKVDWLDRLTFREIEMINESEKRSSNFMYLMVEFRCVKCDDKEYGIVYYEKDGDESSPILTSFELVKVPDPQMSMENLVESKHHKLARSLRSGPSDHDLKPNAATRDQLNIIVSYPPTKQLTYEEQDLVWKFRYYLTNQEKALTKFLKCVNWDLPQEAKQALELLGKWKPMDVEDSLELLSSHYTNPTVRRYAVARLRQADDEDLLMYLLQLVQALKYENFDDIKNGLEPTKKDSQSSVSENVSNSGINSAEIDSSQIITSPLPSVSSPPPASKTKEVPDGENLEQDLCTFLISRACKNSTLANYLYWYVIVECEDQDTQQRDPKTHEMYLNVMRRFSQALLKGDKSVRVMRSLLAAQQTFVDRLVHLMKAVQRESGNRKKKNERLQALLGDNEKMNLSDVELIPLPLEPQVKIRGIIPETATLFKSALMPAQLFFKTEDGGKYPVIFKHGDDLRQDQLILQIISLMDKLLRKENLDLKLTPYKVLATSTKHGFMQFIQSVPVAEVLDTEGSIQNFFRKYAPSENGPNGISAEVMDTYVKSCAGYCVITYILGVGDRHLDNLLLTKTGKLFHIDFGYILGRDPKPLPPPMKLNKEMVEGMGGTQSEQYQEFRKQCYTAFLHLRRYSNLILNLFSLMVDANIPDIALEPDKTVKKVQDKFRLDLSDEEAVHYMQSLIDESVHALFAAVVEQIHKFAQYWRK

**Q.** `CC(=O)Nc1cc(-c2cnc(C)c(NS(=O)(=O)c3ccc(C)cc3Cl)c2)ccn1` was tested. Which IC50 did it give?
**A.** Its IC50 is less than 10 nM.

Source: ChEMBL document CHEMBL5726383, “Heteroaryls and uses thereof” (2017)
